Here are results for 10 molecules from publication PMC4012460, “Seven New and Two Known Lipopeptides as well as Five Known Polyketides: The Activated Production of Silent Metabolites in a Marine-Derived Fungus by Chemical Mutagenesis Strategy Using Diethyl Sulphate” (Marine Drugs, 2014).

Where two headings read alike, the source gives them in different places.

One series concerns MCF-7 cells. As to the kind of experiment: cells. Particulars: Homo sapiens, MCF7, 24 h, read-out: inhibition rate (IR%) on MCF-7 cells.
Series [1] has as its system HL-60 cells. Nature of the series: cells. Particulars: Homo sapiens, HL-60, 24 h, read-out: inhibition rate (IR%) on HL-60 cells.
In series [2] the test system is HeLa cells. As to the kind of experiment: cells. Particulars: Homo sapiens, 24 h, read-out: inhibition rate (IR%) on HeLa cells.
The subject of series [3] is BGC-823 cells. As to the kind of experiment: cells. Particulars: Homo sapiens, BGC-823, 24 h, read-out: inhibition rate (IR%) on BGC-823 cells.
Series [4] has as its system K562 cells. Nature of the series: cells. To be noted: Homo sapiens, K562, 24 h, read-out: inhibition rate (IR%) on K562 cells.
Series [5] concerns HL-60 cells. To be noted: MTT, 24 h.
In series [6] the test system is murine leukemia P388 and L1210, and human epidermoid carcinoma KB cells. To be noted: one range for both compounds and three cell lines; cited from earlier work. On the procedure:
(§1) Fellutamide A and B (8) were originally identified for their cytotoxic properties on murine leukemia P388 and L1210, and human epidermoid carcinoma KB cells with IC50 values 0.1–0.8 µg/mL [15].

Series [7] deals with K562 cells. On the set-up: inhibition rate (IR%) on K562 cells: dose or concentration left out as unconfirmed.
Series [8] concerns HeLa cells. Particulars: MTT, 24 h.
Series [9] deals with BGC-823 cells. To be noted: MTT, 24 h.
The subject of series [10] is human prostate carcinoma PC-3 cells. To be noted: read-out: IC50, cytotoxic against PC-3 cells; cited from earlier work. On the procedure:
as §1

Where [11] appears, read: from IR% at different concentrations.
[12] abbreviates: MTT, 24 h at 37 °C, OD 570 nm, OD means of three wells.

Take `O=c1[nH]cc(F)c(=O)[nH]1` [Compound 5-FU, 5-fluorouracil]: the inhibition (usually the relative decrease from the control value, in per cent) at 100 µg/mL in the series with MCF-7 cells was found to be 47.4%; with HL-60 cells [1], 38.2%; in the series with HeLa cells [2] it was 37.4%; with BGC-823 cells [3], 47.8%; in the series with K562 cells [4] it was 48.5%.

With `CCCCCCCCC[C@@H](O)CC(=O)N[C@@H](CC(N)=O)C(=O)N[C@@H](CCC(N)=O)C(=O)N[C@H](C=O)CC(C)C` [Compound 8, Fellutamide B], the “half-inhibitory concentration (IC50) for HL-60” value in the series on HL-60 cells [5] (setting [11]) is 59.9 µg/mL. For the same molecule, the IC50 in the series with HL-60 cells [5] (read-out: half-inhibitory concentration (IC50) for HL-60, value in brackets, molar) was found to be 108 µM; with K562 cells [7] (24 h), 52.5 µM; with HeLa cells [8] (read-out: half-inhibitory concentration (IC50) for HeLa, value in brackets, molar), 107 µM; with BGC-823 cells [9] (read-out: half-inhibitory concentration (IC50) for BGC-823, value in brackets, molar), 140 µM. For the same molecule, the “IC50, cytotoxic properties on P388, L1210 and KB cells” value in [6] was 0.1 to 0.8 µg/mL. The “half-inhibitory concentration (IC50) for K562” value with K562 cells [7] (MTT, 24 h, from IR% at different concentrations) was found to be 29.1 µg/mL. Further, the “half-inhibitory concentration (IC50) for HeLa” value in the series with HeLa cells [8] (setting [11]) is 59.5 µg/mL. In the series with BGC-823 cells [9] (setting [11]), the “half-inhibitory concentration (IC50) for BGC-823” value worked out at 77.9 µg/mL.

As for `CCCCC[C@H](OC)c1c(O)cc2c(c1O)C(=O)c1c(O)cc(O)cc1C2=O` [Compound 10, 1′-O-Methylaverantin], in the series with K562 cells [7] (setting [12]), the “inhibition rate (IR%) on K562 cells” value is listed as 11.6%.

Regarding `CCCCC[C@H](O)c1c(O)cc2c(c1O)C(=O)c1c(O)cc(O)cc1C2=O` [Compound 11, Averantin], in the series on K562 cells [7] (setting [12]), the “inhibition rate (IR%) on K562 cells” value amounted to 51.9%.

As for `C[C@]12CCC[C@H](O1)c1c(cc3c(c1O)C(=O)c1c(O)cc(O)cc1C3=O)O2` [Compound 12, Averufin], the “inhibition rate (IR%) on K562 cells” value with K562 cells [7] (setting [12]) was found to be 37.9%.

Take `C[C@]12CC[C@H](O)[C@H](O1)c1c(cc3c(c1O)C(=O)c1c(O)cc(O)cc1C3=O)O2` [Compound 13, Nidurufin]: the “inhibition rate (IR%) on K562 cells” value in the series on K562 cells [7] (setting [12]) is given as 25.5%.

Consider `COc1cc2c(c3oc4cccc(O)c4c(=O)c13)[C@@H]1C=CO[C@@H]1O2` [Compound 14, Sterigmatocystin], for which, in the series on K562 cells [7], the “inhibition rate (IR%) on K562 cells” value is 37.5%.

Turning to Fellutamide A [reference compound], the “IC50, cytotoxic properties on P388, L1210 and KB cells” value in series [6] is 0.1 to 0.8 µg/mL.

For the molecule fellutamide D, the IC50 in series [10] was 0.16 µM.

For the molecule fellutamide E, the IC50 in [10] is 0.44 µM.
